Results on three molecules are retold here after patent publication EP2605769B1, “BENZOQUINONE DERIVATIVES FOR THE TREATMENT OF MITCHONDRIAL EYE DISEASES” (Santhera Pharmaceuticals (Schweiz) AG, priority 2010, dated 2012).

Structures are written as SMILES.

Series [1] concerns HepG2 hepatoblastoma cell line. Put plainly: Cytotoxicity assay (WST-1). To be noted: Hep-G2 cells, 24 hours exposure. Type of series: cell-based, human. An excerpt:
This assay investigates cytotoxicity which is defined as the cell-killing property of a chemical compound, independent from the mechanisms of cell death. The HepG2 hepatoblastoma cell line is one of the most common human cell lines for hepatotoxicity studies. […] This assay measures metabolic activity of living cells using the WST-1 cell proliferation reagent (Roche Diagnostics). The tetrazolium salt WST-1 is cleaved to water soluble formazan by cellular enzymes. An expansion in the number of viable cells results in an increase in the overall activity of mitochondrial dehydrogenases in the sample. This augmentation in enzyme activity leads to an increase in the amount of formazan dye formed, which directly correlates to the number of metabolically active cells in the culture. The formazan dye produced by metabolically active cells is directly quantified in a scanning multiwell spectrophotometer by measuring the absorbance of the formazan dye solution between 420 and 480 nm. Healthy HepG2 cells, when maintained in culture, continuously divide and multiply over time. A toxic chemical, regardless of site and mechanism of action, will interfere with this process and result in the reduction of the growth rate reflected in the cell number.
Experimental Procedure: Hep-G2 cells are seeded into a 96-well microplate and maintained in culture for 24 hours. They are then exposed to the test compound over a range of eight concentrations. After 24 hours exposure, the cells are incubated in presence of reagent WST-1 for 30 min before measuring the absorbance of the formazan dye formed. Cytotoxicity is expressed as a concentration dependent reduction of the conversion formazan dye formation due to a decrease in cell proliferation as compared to untreated cells. The TC50 (Toxic Concentration 50%), is defined as the concentration of tested compound required to reduce the cellular viability by 50% relative to the control culture. The lower the TC50 value, the higher is the cytotoxic potential of the test compound. […]

For series [2], the system named is Immortalized lymphoblastoid cells (BC1 LCL). Briefly: ATP assay (ATP dependent luciferase reaction, low glucose). Type of series: cell-based. To be noted: 10 µM, 72 h. An excerpt: Electrons donated from the citric acid cycle in form of NADH are transferred between complexes I, II and III of the respiratory chain. In this process mitochondrial membrane potential is generated through proton pumps in the mitochondrial inner membrane. This electrochemical gradient across the inner mitochondrial membrane is used in healthy cells to provide the energy to drive mitochondrial ATP production. Consequently, cellular ATP levels are a good indicator of mitochondrial function. […] A potential inhibition of mitochondrial respiration can be detected through special growth conditions in vitro. […]
Experimental Procedure: This assay was therefore performed in the absence of glucose in the medium. […] The number of cells was counted and after brief washing in PBS and collecting through centrifugation (5 min; 200 x g) the cells were lysed in a volume of 0.5 ml lysis solution (4 mM EDTA, 0.2% Triton X-100) for 15 min.on ice and 10 µl of lysate was added into a white 96 well plate. […] The reaction was started by addition of 100 µl reaction mix (300 µM D-Luciferin, 5 µg/ml firefly luciferase, 75 µM DTT, 25 mM HEPES, 6.25 mM MgCl2, 625 µM EDTA and 1 mg/ml BSA) and the luminescence signal was quantified in a multimode plate reader (Tecan M1000 plate reader; luminescence integration time: 100 ms). […]

`COC1=C(OC)C(=O)C(CCCCCCCCCCO)=C(C)C1=O` [Compound IA, Idebenone] registered a TC50 in series [1] of 100 µM.

`CCCCCCCCCCCC1=C(O)C(=O)C=C(O)C1=O` [Compound IE, Embelin] came in with a TC50 in series [1] of 100 µM. Besides, the ATP levels in series [2] is listed as 95%.

The molecule `COC1=C(OC)C(=O)C(CCCCCCCCCC(C)(C)O)=C(C)C1=O` [Compound IC] came in with an ATP levels in series [2] of 63%.
